Test results taken from US10709692B2, “Isoxazolidine derived inhibitors of receptor interacting protein kinase 1 (RIPK1)” (Denali Therapeutics Inc., priority 2015, dated 2020).

target: T1, receptor interacting protein kinase 1 (GST-hRIPK1 (8-327)) (Homo sapiens, UniProt Q13546); test: Fluorescent Polarization Binding (FP Binding) assay; details: 10 nM GST-hRIPK1 (8-327), 5 nM fluorescent-labeled ligand, 30 min at RT
T1 construct: GST-hRIPK1 (8-327) enzyme was generated by Proteros GmbH by Baculovirus expression system
T1 sequence (Q13546 8-327): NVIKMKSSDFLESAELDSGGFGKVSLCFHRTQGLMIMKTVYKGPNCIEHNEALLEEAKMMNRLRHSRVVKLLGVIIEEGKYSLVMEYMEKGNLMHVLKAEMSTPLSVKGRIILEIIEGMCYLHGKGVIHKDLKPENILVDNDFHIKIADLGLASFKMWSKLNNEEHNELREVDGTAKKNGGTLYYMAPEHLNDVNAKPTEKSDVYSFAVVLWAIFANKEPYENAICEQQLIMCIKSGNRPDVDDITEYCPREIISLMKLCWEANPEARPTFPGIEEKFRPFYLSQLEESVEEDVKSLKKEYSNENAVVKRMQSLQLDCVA
Protocol: Fluorescent Polarization Binding (FP Binding) assay (Berger S. B. et al. (2015) Cell Death Discovery, 1: 15009; Maki J. L. et al. (2012) Anal Biochem., 427(2): 164-174) was performed in polystyrene low volume 384-well black plate, at Room Temperature (RT) in a final volume of 10.1 μl/well using 10 nM of GST-hRIPK1 (8-327) enzyme and 5 nM of fluorescent-labeled ligand (14-(2-{[3-({2-{[4-(cyanomethyl)phenyl]amino}-6-[(5-cyclopropyl-1H-pyrazol-3-yl)amino]-4-pyrimidinyl}amino) propyl]amino}-2-oxoethyl)-16,16,18,18-tetramethyl-6,7,7a,8a,9,10,16,18-octahydrobenzo[2″3″]indolizino[8″, 0.7″:5′,6′]pyrano[3′,2′:3,4]pyrido[1,2-a]indol-5-ium-2-sulfonate.
Test compounds were serially diluted in DMSO at 100 fold final concentrations in the assay (1% DMSO final). In each well of a 384-well Plate were dispensed 0.1 μL of compound solution (or DMSO for controls) followed by 5 μL of GST-hRIPK1 (8-327) at twice the final concentrations in assay-buffer (50 mM HEPES pH 7.5, 10 mM NaCl, 50 mM MgCl2, 0.02% CHAPS, 0.5 mM DTT and 0.01% Pluronic F127). For negative control the enzyme addition was replaced by assay buffer only.
After addition of 5 μL of fluorescent-labeled ligand at twice the final concentrations in assay buffer, the plate was incubated at RT for 30 min. At the end, the binding was measured as FP value with the Envision (PerkinElmer) plate reader using filter for an excitation λ=531 nm FP and an emission λ=595 nm FP (S & P-pol).
Test compound inhibition was expressed as percent inhibition of internal assay controls. For concentration response curves, normalized data is fit and IC50 determined using XL-fit (IDBS) for Excel. IC50 were averaged to determine a mean value, for a minimum of two independent experiments.
Receptor interacting protein kinase 1 activity of exemplary compounds was determined according to the above general procedures.
Receptor interacting protein kinase 1 activity of certain compounds was determined according to the above general procedures.

Structure (SMILES)	IC50 [µM]
N#Cc1ccc([C@@H]2CCON2C(=O)C2(C(F)F)CCC2)cc1 [Compound 229, 4-[(3S)-2-[1-(difluoromethyl)cyclo-butanecarbonyl]-1,2-oxazolidin-3-yl]benzonitrile]	< 1
O=C([C@H]1C[C@H](O)C1)N1OCC[C@H]1c1ccccc1 [Compound 75, (1r,3r)-3-[(3S)-3-Phenyl-1,2-oxazolidine-2-carbonyl]cyclobutan-1-ol]	1 to 10
CC(C(=O)N1OCC[C@H]1c1ccc(C#N)cc1)C(F)(F)F (single isomer, unassigned) [Compound 179]	< 1
CC(CC(F)F)C(=O)N1OCC[C@H]1c1ccc(C#N)cc1 (single isomer, unassigned) [Compound 233]	< 1
CC(C)(COC(F)(F)F)C(=O)N1OCC[C@H]1c1ccc(F)nc1 [Compound 164, 1-[(3S)-3-(6-fluoropyridin-3-yl)-1,2-oxazolidin-2-yl]-2,2-dimethyl-3-(trifluoromethoxy) propan-1-one]	< 1
CC1(C(=O)N2OCC[C@H]2c2ccc(F)nc2)CC1(F)F (single isomer, unassigned) [Compound 113]	< 1
CC(C)(C(=O)N1OCC[C@H]1c1cc(F)cc(C#N)c1)C(F)F [Compound 226, 3-[(3S)-2-(3,3-difluoro-2,2-dimethylpropanoyl)-1,2-oxazolidin-3-yl]-5-fluorobenzonitrile]	< 1
CC(C)(C)C(=O)N1OCC[C@H]1c1cc(C#N)ccc1F [Compound 150, 3-[(3S)-2-(2,2-dimethylpropanoyl)-1,2-oxazolidin-3-yl]-4-fluorobenzonitrile]	< 1
Cn1c(C#N)ccc1C(=O)N1OCC[C@@H]1c1ccc(F)cc1 [Compound 59, 5-[(3R)-3-(4-fluorophenyl)-1,2-oxazolidine-2-carbonyl]-1-methyl-1H-pyrrole-2-carbonitrile]	> 10
CC(C(=O)N1OCCC1c1ccc(C#N)cc1)C(F)F (single isomer, unassigned) [Compound 92]	< 1
O=C(C1CC1(F)F)N1OCC[C@H]1c1ccc(F)cc1 (single isomer, unassigned) [Compound 237]	< 1
Cn1c(C#N)ccc1C(=O)N1OCC[C@H]1c1ccc(F)cc1 [Compound 60, 5-[(3S)-3-(4-fluorophenyl)-1,2-oxazolidine-2-carbonyl]-1-methyl-1H-pyrrole-2-carbonitrile]	< 1
CC(C)(C(=O)N1OCC[C@@H]1c1ccc(C#N)s1)C(F)F [Compound 203, 5-[(3R)-2-(3,3-difluoro-2,2-dimethylpropanoyl)-1,2-oxazolidin-3-yl]thiophene-2-carbonitrile]	< 1
CC(C)(C)C(=O)N1OCC[C@H]1c1ccc(C#N)nc1 [Compound 143, 5-[(3S)-2-(2,2-dimethylpropanoyl)-1,2-oxazolidin-3-yl]pyridine-2-carbonitrile]	< 1
CC(C)(C)C(=O)N1OCCC1c1ccnnc1 (stereo not shown) [Compound 157, 2,2-dimethyl-1-[3-(pyridazin-4-yl)-1,2-oxazolidin-2-yl]propan-1-one]	1 to 10
Cc1ccc([C@@H]2CCON2C(=O)C(C)(C)C)cn1 [Compound 152, 2,2-dimethyl-1-[(3S)-3-(6-methylpyridin-3-yl)-1,2-oxazolidin-2-yl]propan-1-one]	< 1
CC(C)(C(=O)N1OCC[C@H]1c1ccc(F)cc1)S(C)(=O)=O [Compound 194, 1-[(3S)-3-(4-fluorophenyl)-1,2-oxazolidin-2-yl]-2-methanesulfonyl-2-methylpropan-1-one]	1 to 10
CC(C)(C#N)C(=O)N1OCC[C@H]1c1ccc(F)cc1 [Compound 182, 3-[(3S)-3-(4-fluorophenyl)-1,2-oxazolidin-2-yl]-2,2-dimethyl-3-oxopropanenitrile]	< 1
CC(C)(C)C(=O)N1OCC[C@H]1c1ccc(Cl)cn1 [Compound 89, 1-[(3S)-3-(5-chloropyridin-2-yl)-1,2-oxazolidin-2-yl]-2,2-dimethylpropan-1-one]	< 1
